Reference: patent US4363805A, “Aminodesoxy-1.4;3.6-dianhydrohexitol nitrates and pharmaceutical composition” (Firma Willmar Schwabe, priority 1980, dated 1982)

How the values were obtained:
narcotised guinea pigs = assay: Blood pressure experiments on guinea pigs, i.v.; assay type: in vivo, guinea pig; conditions: for blood pressure before: before administration
mongrel cats [1] = assay: Inotropic and heart-circulatory effectiveness on narcotised cats, intravenous; assay type: in vivo, cat; conditions: 6 animals
mongrel cats [2] = assay: Inotropic and heart-circulatory effectiveness on narcotised cats, intraduodenal; assay type: in vivo, cat; conditions: 5 mg/kg intraduodenal
[3] = Acute toxicity, intravenous, mice; assay type: in vivo; conditions: mouse, in vivo; intravenous, within 24 hours; read-out: Evaluated LD50-range
female NMRI-albino mice = assay: Acute toxicity, intravenous, mice; assay type: in vivo; conditions: within 24 hours
[4] = tested on: isolated guinea pig hearts; assay: Experiments on Langendorff hearts (coronary flowthrough, inotropism, frequency); conditions: Cavia porcellus, read-out: flowthrough, percentage change with regard to the initial value
Procedure: After reaching the stationary state in the 30th minute, the hearts were each perfused with 50 ml. tyrode solution with a content of test substance of, in each case, 25 μg./ml. Each test substance was tested on 3-6 hearts.
In each case, there was measured the inotropism, the flowthrough and the frequency, whereby the values given in Table I are average values of the percentage changes in comparison with the initial values.

[5] = 0.25 mg/kg i.v., before administration

In the case of `O=[N+]([O-])O[C@H]1CO[C@H]2[C@@H]1OC[C@@H]2NCC(O)COc1cccc(C(F)(F)F)c1` (stereo partly drawn) [Example 52, 5-[2-Hydroxy-3-(3-trifluoromethylphenoxy)-propylamino]-5-desoxy-1.4;3.6-dianhydro-L-iditol 2-nitrate], the blood pressure after (narcotised guinea pigs; 0.25 mg/kg i.v.) is reported as 60.50 ± 1.32 mm.Hg, the “blood pressure Δ” value (narcotised guinea pigs; 0.25 mg/kg i.v.) is reported as -5.00 mm.Hg and the blood pressure before (narcotised guinea pigs; 0.25 mg/kg i.v.) is reported as 65.50 ± 1.50 mm.Hg. The blood pressure after (narcotised guinea pigs; 1.00 mg/kg i.v.) was 49.25 ± 4.37 mm.Hg, the “blood pressure Δ” value (narcotised guinea pigs; 1.00 mg/kg i.v.) was -11.75 mm.Hg and the blood pressure after (narcotised guinea pigs; 2.50 mg/kg i.v.) was 39.00 ± 4.38 mm.Hg. For the same compound, the “blood pressure Δ” value (narcotised guinea pigs; 2.50 mg/kg i.v.) was -17.75 mm.Hg, the blood pressure before (mongrel cats [1]; [5]) was 91.7 mm.Hg and the “dp/dt (inotropism) before” value (mongrel cats [1]; [5]) was 6150 mm.Hg/sec. The heart frequency before (mongrel cats [1]; [5]) was 216.7 min⁻¹, the “blood pressure WD” value (mongrel cats [1]; 0.25 mg/kg i.v.) was 5.6 min and the blood pressure after (mongrel cats [1]; 0.25 mg/kg i.v.) was 77.2 mm.Hg. For the same compound, the “blood pressure Δ” value (mongrel cats [1]; 0.25 mg/kg i.v.) was -14.5 mm.Hg, the “dp/dt (inotropism) after” value (mongrel cats [1]; 0.25 mg/kg i.v.) was 5517 mm.Hg/sec and the “dp/dt (inotropism) Δ” value (mongrel cats [1]; 0.25 mg/kg i.v.) was -633 mm.Hg/sec. The “dp/dt WD” value (mongrel cats [1]; 0.25 mg/kg i.v.) was 4.2 min, the heart frequency after (mongrel cats [1]; 0.25 mg/kg i.v.) was 216.7 min⁻¹ and the “heart frequency Δ” value (mongrel cats [1]; 0.25 mg/kg i.v.) was 0 min⁻¹. For the same compound, the “blood pressure WD” value (mongrel cats [1]; 0.50 mg/kg i.v.) was 11.7 min, the blood pressure after (mongrel cats [1]; 0.50 mg/kg i.v.) was 74.8 mm.Hg and the “blood pressure Δ” value (mongrel cats [1]; 0.50 mg/kg i.v.) was -19.9 mm.Hg. The “dp/dt (inotropism) after” value (mongrel cats [1]; 0.50 mg/kg i.v.) was 5133 mm.Hg/sec, the “dp/dt (inotropism) Δ” value (mongrel cats [1]; 0.50 mg/kg i.v.) was -850 mm.Hg/sec and the “dp/dt WD” value (mongrel cats [1]; 0.50 mg/kg i.v.) was 10.5 min. The heart frequency after (mongrel cats [1]; 0.50 mg/kg i.v.) was 217.0 min⁻¹, the “heart frequency Δ” value (mongrel cats [1]; 0.50 mg/kg i.v.) was 0 min⁻¹ and the “blood pressure WD” value (mongrel cats [1]; 1.00 mg/kg i.v.) was 14.7 min. The blood pressure after (mongrel cats [1]; 1.00 mg/kg i.v.) was 69.2 mm.Hg, the “blood pressure Δ” value (mongrel cats [1]; 1.00 mg/kg i.v.) was -26.5 mm.Hg and the “dp/dt (inotropism) after” value (mongrel cats [1]; 1.00 mg/kg i.v.) was 4250 mm.Hg/sec. For the same compound, the “dp/dt (inotropism) Δ” value (mongrel cats [1]; 1.00 mg/kg i.v.) was -1333 mm.Hg/sec, the “dp/dt WD” value (mongrel cats [1]; 1.00 mg/kg i.v.) was 15.3 min and the heart frequency after (mongrel cats [1]; 1.00 mg/kg i.v.) was 217.3 min⁻¹. The “heart frequency Δ” value (mongrel cats [1]; 1.00 mg/kg i.v.) was -1.0 min⁻¹, the “blood pressure WD” value (mongrel cats [1]; 2.50 mg/kg i.v.) was > 10 min and the blood pressure after (mongrel cats [1]; 2.50 mg/kg i.v.) was 60.5 mm.Hg. For the same compound, the “blood pressure Δ” value (mongrel cats [1]; 2.50 mg/kg i.v.) was -34.5 mm.Hg, the “dp/dt (inotropism) after” value (mongrel cats [1]; 2.50 mg/kg i.v.) was 2733 mm.Hg/sec and the “dp/dt (inotropism) Δ” value (mongrel cats [1]; 2.50 mg/kg i.v.) was -2500 mm.Hg/sec. For the same compound, the “dp/dt WD” value (mongrel cats [1]; 2.50 mg/kg i.v.) was > 10 min, the heart frequency after (mongrel cats [1]; 2.50 mg/kg i.v.) was 204.0 min⁻¹ and the “heart frequency Δ” value (mongrel cats [1]; 2.50 mg/kg i.v.) was -14.3 min⁻¹. The blood pressure (mongrel cats [2]; 0 min after admin.) was 113.8 ± 5.8 mm.Hg, the “dp/dt (inotropism)” value (mongrel cats [2]; 0 min after admin.) was 6540 ± 631 mm.Hg/sec and the heart frequency (mongrel cats [2]; 0 min after admin.) was 209.6 ± 15.7 min⁻¹. The blood pressure (mongrel cats [2]; 10 min after admin.) was 100.4 mm.Hg, the “blood pressure Δ” value (mongrel cats [2]; 10 min after admin.) was -13.4 mm.Hg and the “dp/dt (inotropism)” value (mongrel cats [2]; 10 min after admin.) was 6200 ± 374 mm.Hg/sec. The “dp/dt (inotropism) Δ” value (mongrel cats [2]; 10 min after admin.) was -340 mm.Hg/sec, the heart frequency (mongrel cats [2]; 10 min after admin.) was 212.4 ± 13.8 min⁻¹ and the blood pressure (mongrel cats [2]; 30 min after admin.) was 95.6 ± 9.9 mm.Hg. For the same compound, the “blood pressure Δ” value (mongrel cats [2]; 30 min after admin.) was -18.2 mm.Hg, the “dp/dt (inotropism)” value (mongrel cats [2]; 30 min after admin.) was 6120 ± 270 mm.Hg/sec and the “dp/dt (inotropism) Δ” value (mongrel cats [2]; 30 min after admin.) was -440 mm.Hg/sec. For the same compound, the heart frequency (mongrel cats [2]; 30 min after admin.) was 212.8 ± 13.1 min⁻¹, the blood pressure (mongrel cats [2]; 60 min after admin.) was 95.8 ± 8.0 mm.Hg and the “blood pressure Δ” value (mongrel cats [2]; 60 min after admin.) was -18.0 mm.Hg. For the same compound, the “dp/dt (inotropism)” value (mongrel cats [2]; 60 min after admin.) was 5480 ± 314 mm.Hg/sec, the “dp/dt (inotropism) Δ” value (mongrel cats [2]; 60 min after admin.) was -1060 mm.Hg/sec and the heart frequency (mongrel cats [2]; 60 min after admin.) was 216.0 ± 12.3 min⁻¹. The blood pressure (mongrel cats [2]; 120 min after admin.) was 98.4 ± 9.0 mm.Hg, the “blood pressure Δ” value (mongrel cats [2]; 120 min after admin.) was -15.4 mm.Hg and the “dp/dt (inotropism)” value (mongrel cats [2]; 120 min after admin.) was 5460 ± 768 mm.Hg/sec. For the same compound, the “dp/dt (inotropism) Δ” value (mongrel cats [2]; 120 min after admin.) was -1080 mm.Hg/sec, the heart frequency (mongrel cats [2]; 120 min after admin.) was 214.4 ± 11.6 min⁻¹ and the LD50 at 24 h [3] was 100 to 200 mg/kg. The Frequency of death (female NMRI-albino mice; 100 mg/kg i.v.) was 1/3, the Frequency of death (female NMRI-albino mice; 200 mg/kg i.v.) was 6/6 and the activation at 25 µg/mL [4] was 214%.

For `CN1CCN([C@H]2CO[C@H]3[C@@H]2OC[C@@H]3O[N+](=O)[O-])CC1` [17 b], the blood pressure after (narcotised guinea pigs; 0.25 mg/kg i.v.) was 59.00 ± 2.27 mm.Hg, the “blood pressure Δ” value (narcotised guinea pigs; 0.25 mg/kg i.v.) was -4.50 mm.Hg and the blood pressure before (narcotised guinea pigs; 0.25 mg/kg i.v.) was 63.50 ± 3.77 mm.Hg. The blood pressure after (narcotised guinea pigs; 1.00 mg/kg i.v.) was 46.25 ± 3.07 mm.Hg, the “blood pressure Δ” value (narcotised guinea pigs; 1.00 mg/kg i.v.) was -17.75 mm.Hg and the blood pressure after (narcotised guinea pigs; 2.50 mg/kg i.v.) was 38.25 ± 4.55 mm.Hg. The “blood pressure Δ” value (narcotised guinea pigs; 2.50 mg/kg i.v.) was -23.50 mm.Hg, the LD50 at 24 h [3] was > 200 mg/kg and the Frequency of death (female NMRI-albino mice; 200 mg/kg i.v.) was 0/3. It also gave an activation at 25 µg/mL [4] of 25.1%.

In the case of `O=[N+]([O-])O[C@H]1CO[C@H]2[C@@H]1OC[C@@H]2N1CCCCC1` [15 b], the blood pressure after (narcotised guinea pigs; 0.25 mg/kg i.v.) is reported as 63.00 ± 1.83 mm.Hg, the “blood pressure Δ” value (narcotised guinea pigs; 0.25 mg/kg i.v.) is reported as -9.00 mm.Hg and the blood pressure before (narcotised guinea pigs; 0.25 mg/kg i.v.) is reported as 72.00 ± 2.12 mm.Hg. For the same compound, the blood pressure after (narcotised guinea pigs; 1.00 mg/kg i.v.) was 53.50 ± 1.71 mm.Hg, the “blood pressure Δ” value (narcotised guinea pigs; 1.00 mg/kg i.v.) was -17.75 mm.Hg and the blood pressure after (narcotised guinea pigs; 2.50 mg/kg i.v.) was 49.00 ± 2.48 mm.Hg. The “blood pressure Δ” value (narcotised guinea pigs; 2.50 mg/kg i.v.) was -23.00 mm.Hg, the LD50 at 24 h [3] was 50 to 100 mg/kg and the Frequency of death (female NMRI-albino mice; 50 mg/kg i.v.) was 0/3. The Frequency of death (female NMRI-albino mice; 100 mg/kg i.v.) was 2/3, the Frequency of death (female NMRI-albino mice; 200 mg/kg i.v.) was 6/6 and the activation at 25 µg/mL [4] was 34%.

With `O=[N+]([O-])O[C@H]1CO[C@H]2[C@@H]1OC[C@@H]2N1CCOCC1` [16 b] the blood pressure after (narcotised guinea pigs; 0.25 mg/kg i.v.) was 59.50 ± 5.63 mm.Hg, the “blood pressure Δ” value (narcotised guinea pigs; 0.25 mg/kg i.v.) was -9.25 mm.Hg and the blood pressure before (narcotised guinea pigs; 0.25 mg/kg i.v.) was 68.75 ± 3.07 mm.Hg. The blood pressure after (narcotised guinea pigs; 1.00 mg/kg i.v.) was 48.25 ± 4.80 mm.Hg, the “blood pressure Δ” value (narcotised guinea pigs; 1.00 mg/kg i.v.) was -19.75 mm.Hg and the blood pressure after (narcotised guinea pigs; 2.50 mg/kg i.v.) was 43.25 ± 4.91 mm.Hg. The “blood pressure Δ” value (narcotised guinea pigs; 2.50 mg/kg i.v.) was -23.50 mm.Hg, the LD50 at 24 h [3] was > 200 mg/kg and the Frequency of death (female NMRI-albino mice; 200 mg/kg i.v.) was 0/3. It also gave an activation at 25 µg/mL [4] of 14.7%.
